Assay results reported in patent publication US20130331332A1, “COMPOSITION COMPRISING PEROXISOME PROLIFERATOR-ACTIVATED RECEPTOR-GAMMA” (MERZ PHARMA GmbH & Co. KGaA, priority 2011, published 2013).

Legend:
Type in all cases: cell-based, human
[1] = tested on: adipose-derived stem cells (ASCs); assay: Oil-O-Red staining of fat vacuoles in adipose-derived stem cells (Example 6); conditions: for adipogenic differentiation / development of fat vacuoles (Oil-O-Red staining): 3 weeks of incubation in NM; for formation of fat vacuoles / adipogenic differentiation (Oil-O-Red staining): PPARγ 2.7, 1, 0.5 or 0.1 μg/ml
Method: The induction of adipogenic differentiation by recombinant PPARγ was verified by Oil-O-Red staining of fat vacuoles. Human adipose-derived stem cells (ASCs) from 4 different donors were isolated as described in example 3. The cells were cultured for 2 weeks in “NM”, a standard culture medium of Dulbecco's modified Eagle's medium with a physiologic glucose concentration of 100 mg/dl (DMEM, Sigma, Germany) supplemented with 10% fetal calf serum (FCS; PAA, Germany) and medium was changed every 5-6 days. Cells were cultured in NM containing 2.7 μg/ml, 1 μg/ml, 0.5 μg/ml, or 0.1 μg/ml of PPARγ (Thermo Scientific-Pierce, PPARgamma human), respectively, or 5 μM Pioglitazone (Sigma-Aldrich, Germany), or 5 μM Pioglitazone and 2.7 μg/ml PPARγ, or 5 μM Pioglitazone and 0.1 μg/ml PPARγ. Controls were cultured in NM.
After 2 weeks in culture the formation of lipid droplets which is indicative of the ability to differentiate was verified by Oil-O-Red staining. Oil-O-Red is a fat-soluble dye used for the staining of neutral triglycerides. […] After fixation with 4% paraformaldehyde for 20 minutes, the cells were incubated for a staining time of 1 hour with a 0.5% Oil-O-Red (Sigma) solution in Isopropanol/glycerine. The Oil-O-Red staining was evaluated microscopically.
Further cells were cultured in NM containing 5 μM Pioglitazone (Sigma-Aldrich, Germany), or 5 μM Pioglitazone and 2.7 μg/ml PPARγ, or 5 μM Pioglitazone and 0.1 μg/ml PPARγ.
Further cell samples were cultured in “AM-” composed of DMEM with 4500 mg/l glucose, 10 μM insulin (Novo Nordisk), 1 μM dexamethasone (Ratiopharm), 10% FCS. Cell samples were cultured in AM- containing 2.7 μg/ml, 1 μg/ml, 0.5 μg/ml, or 0.1 μg/ml of PPARγ, respectively, or 5 μM Pioglitazone, or 5 μM Pioglitazone and 2.7 μg/ml PPARγ. Negative control cells were cultured in AM-. Cells incubated with DMEM with 4500mg/l glucose, 10 μM insulin (Novo Nordisk), 1 μM dexamethasone (Ratiopharm), 10% FCS and 1 mM isobutyl-methylxanthin (Sigma) and 200 μM indometacin (Fluka) were used as a positive induction control.
Culturing of cells in NM and in AM- containing the different PPARγ concentrations as given above was repeated with an incubation period of 3 weeks.

[2] = tested on: adipose-derived stem cells; assay: Cell proliferation of adipose-derived stem cells, MTT photometric assay (Example 4); conditions: 6 days, FIG. 1
Method: Cell proliferation was determined by a photometric assay using MTT (3-(4,5-dimethylthiazol-2-yl)-2,5-diphenyltetrazolium bromide). In brief, human adipose-derived stem cells were isolated from 5 different donors according to example 3 and 1.5×10^4 cells were seeded in 96-well-plates. Cell samples were used in quadruplicate in each experiment. The human adipose-derived stem cells were cultured for 6 days in two different media containing PPARγ or control media. Recombinant PPARγ (recPPARγ) (Thermo Scientific-Pierce, PPARgamma human) was solved in dimethyl sulfoxide (DMSO) at a concentration of 270 µg/ml and used as a stock solution. Working solutions were prepared by dilution using a factor of 1:100 for a final concentration of 2.7 μg/ml, a factor of 1:270 for a final concentration of 1 μg/ml, a factor of 1:540 for a final concentration of 0.5 μg/ml, and a factor of 1:2700 for a final concentration of 0.1 μg/ml. […]
After 6 days of culturing, the cells were incubated in PBS containing MTT at 37° C. for 4 hours. Afterwards, the medium was removed, 0.04 N HCl was added, and absorbance was measured in a microplate reader at 550 nm versus 650 nm. […]

[3] = tested on: adipose-derived stem cells; assay: Photometric measurement (optical density) of adipogenic differentiation in adipose-derived stem cells (Example 5); conditions: 2 weeks of culturing, FIG. 2
Method: The induction of adipogenic differentiation by recombinant PPARγ was tested in human adipose-derived stem cells from 4 different donors isolated as described in example 3. The cells were cultured for 2 weeks, and media were changed every 5-6 days. Cell samples were seeded with 1.5×10^4 cells in 96-well-plates. Recombinant PPARγ (recPPARγ) (Thermo Scientific-Pierce, PPARgamma human) was solved in dimethyl sulfoxide (DMSO) at a concentration of 270 µg/ml and used as a stock solution. Working solutions were prepared by dilution using a factor of 1:100 for a final concentration of 2.7 μg/ml, a factor of 1:270 for a final concentration of 1 μg/ml, a factor of 1:540 for a final concentration of 0.5 μg/ml, and a factor of 1:2700 for a final concentration of 0.1 μg/ml.
Cells were cultured in two different media, either in “NM”, a standard culture medium of Dulbecco's modified Eagle's medium with a physiologic glucose concentration of 100 mg/dl (DMEM, Sigma, Germany) supplemented with 10% fetal calf serum (FCS; PAA, Germany), or in “AM-” composed of DMEM with 4500 mg/l glucose (high glucose) and 10 μM insulin (Novo Nordisk), 1 μM dexamethasone (Ratiopharm), and 10% FCS. Cell samples were cultured in NM containing 2.7 μg/ml, 1 μg/ml, 0.5 μg/ml, or 0.1 μg/ml of PPARγ, respectively. […] After 2 weeks of culturing, the optical density was measured in a microplate reader. […]

[4] = tested on: adipose-derived stem cells (ASC); assay: Induction of adipocyte differentiation by PPARgamma, oil red O staining (Example 2); conditions: PPARgamma 0.0001%, 0.01% and 1% by weight in culture media; 5 days incubation, further 9 days in culture; oil red O staining of lipid droplets
Method: The ability of peroxisome proliferator-activated receptor-gamma to induce differentiation of adipocytes was studied in adipose-derived stem cells (ASC). Human adipose-derived stem cells were obtained by liposuction and cultured following a published procedure (Crandall et al, Endocrinology 140:154-8, 1999). In brief, adipose tissue was digested with 2 mg/mL collagenase in Krebs-Ringer-bicarbonate buffer (pH 7.4). The preadipocyte fraction was resuspended in growth medium, transferred to a culture flask, and maintained in an incubator at 37° C., and 5% CO2. Cell attachment was allowed for 16-20 h and afterwards the cells that had not adhered were removed.
Peroxisome proliferator-activated receptor-gamma (PPARgamma) was added to respective final concentrations of 0.0001%, 0.01% and 1% by weight to the culture media 24 hours after the cells were seeded. The media was changed every three days and supplemented with fresh peroxisome proliferator-activated receptor-gamma. The cells were incubated with peroxisome proliferator-activated receptor-gamma for 5 days. Afterwards peroxisome proliferator-activated receptor-gamma was removed, and the cells were kept for further 9 days in culture for observation of lipid droplet formation, which is indicative of the ability to differentiate. Controls were run in medium without peroxisome proliferator-activated receptor-gamma. […]

Compound	adipogenic differentiation / development of fat vacuoles (Oil-O-Red staining) [1]	cell proliferation (MTT assay) ([2]; 5 μM Pioglitazone alone, NM standard medium)	cytotoxic effect on cells (cell number by optical density) ([3]; 2.7-0.1 μg/ml PPARγ)	differentiation and proliferation (increase in optical density) ([3]; both media (NM and AM-))	formation of fat vacuoles / adipogenic differentiation (Oil-O-Red staining) ([1]; 2 weeks of culture in AM- medium)	formation of fat vacuoles / adipogenic differentiation (Oil-O-Red staining) ([1]; 2 weeks of culture in NM, Pioglitazone 5 μM, FIG. 3)	formation of fat vacuoles and adipogenic differentiation (Oil-O-Red staining) ([1]; 3 weeks of culture in AM- medium)	Degree of differentiation [4]	cell proliferation (MTT assay) ([2]; 2.7, 1, 0.5 or 0.1 μg/ml PPARγ, both media (NM and AM-))
CCc1ccc(CCOc2ccc(CC3SC(=O)NC3=O)cc2)nc1 (racemic) [Pioglitazone, (RS)-5-{p-[2-(5-ethyl-2-pyridyl)ethoxy]benzyl}-2,4-thiazolidinedione, reference compound]	only slightly induced differentiation	no effect	–	–	–	–	–	–	–
PPARγ: Recombinant PPARγ protein (Thermo Scientific-Pierce, PPARgamma human); nuclear hormone receptor transcription factor	heavily induced adipogenic differentiation	–	no cytotoxic effect	stimulated the differentiation and proliferation	able to induce the formation of fat vacuoles	able to induce the formation of fat vacuoles	induced the formation of fat vacuoles and adipogenic differentiation	++ to +++	stimulated the proliferation of the adipose-derived stem cells in a dose-dependent manner
